PMC8533206 (Antioxidants, 2021)
“And” between values parts separate entries of the source, which are not always exact repeats. Equal values may be shown once. “Also recorded” adds a separate entry of the source.

Columns and labels:
PC12 cells [1] = test: Cytotoxicity over PC12 cells (MTT assay); type: cell-based; conditions: 24 h
Protocol: (§1) PC12 cells were routinely maintained in RPMI-1640 media containing 100 IU/mL penicillin, and 100 μg/mL streptomycin supplemented by 10% heat-inactivated HS, 5% FBS in a humidified incubator containing 5% CO2 and 95% air at 37 °C [25]. The cell culture media was changed every two days. To perform experiments, cells were plated on poly-D-lysine/laminin-coated 24-well plates at a density of 3 × 10^5 cells/well and incubated for at least 24 h to allow cell adhesion.
To examine the effects of the test compounds on cell survival, cells were incubated in low serum media (1% HS, 1% FBS, 100 IU/mL penicillin, and 100 μg/mL streptomycin) with test compounds at the concentrations of 10 and 30 μM or an equivalent volume of vehicle control (DMSO at the final concentration of 0.3%) for 24 h. The media containing test compounds was sonicated at room temperature for 30 min to assure adequate dissolution in the media. To assess the protective effects of the test compounds on 6-OHDA- or rotenone-induced cell death in PC12 cells, cells were pre-treated with the compounds or rasagiline for 4 h. The pre-treated cells were then exposed to 6-OHDA (50 μM) or rotenone (1 μM) for 24 h.
After the desired treatment, cell viability was determined by MTT assay as described previously, with slight modification. Briefly, MTT was added to the cells at the final concentration of 0.5 mg/mL, followed by incubation for 3 h at 37 °C. The supernatants were carefully removed, and then 300 μL of DMSO was added to each well to dissolve formazan precipitate. The absorbance of the dissolved solution was measured at 550 nm using a microplate reader (SpectraMax M2e, Molecular Devices, Sunnyvale, CA, USA). The cell viability was presented as the percentage of the absorbance measured in the vehicle-treated control cells. […] Inhibition (%) = 100 × (Abssample − Abs6-OHDA or rotenone)/(Abscontrol − Abs6-OHDA or rotenone)

[2] = molecular target: T1, Human recombinant MAO-B (hMAO-B) (Homo sapiens, UniProt P27338); test: MAO-B inhibition assay (Amplex Red fluorescence, benzylamine substrate); type: biochemical; conditions: for IC50: five doses 10, 1, 0.1, 0.01, 0.001 μM, triplicate; for Selectivity Index (SI): ratio of IC50 (MAO-A)/IC50 (MAO-B); for inhibition at 10 µM / % Inhibition of MAO-B at 10 µM: single dose 10 µM
T1 construct: purchased Sigma-Aldrich; host or cells: insect cells
T1 sequence (P27338 1-520): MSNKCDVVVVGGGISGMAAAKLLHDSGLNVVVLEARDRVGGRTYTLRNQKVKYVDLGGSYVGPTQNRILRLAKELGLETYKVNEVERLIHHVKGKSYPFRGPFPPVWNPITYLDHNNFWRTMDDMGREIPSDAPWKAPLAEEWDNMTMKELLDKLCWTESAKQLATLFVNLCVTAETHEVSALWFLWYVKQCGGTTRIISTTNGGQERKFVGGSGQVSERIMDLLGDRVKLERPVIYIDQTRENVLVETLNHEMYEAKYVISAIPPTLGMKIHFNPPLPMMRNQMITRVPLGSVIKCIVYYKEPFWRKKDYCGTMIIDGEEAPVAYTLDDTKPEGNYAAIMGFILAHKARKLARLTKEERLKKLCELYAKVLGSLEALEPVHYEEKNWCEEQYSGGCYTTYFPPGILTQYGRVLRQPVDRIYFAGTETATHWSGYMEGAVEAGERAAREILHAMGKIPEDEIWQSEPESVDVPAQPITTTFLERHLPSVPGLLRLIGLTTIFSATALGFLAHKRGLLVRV
Protocol: The biological evaluation of the tested compounds over both MAO-A and MAO-B was performed following the previously reported method. The MAO activity was measured in relative fluorescence units (RFU) evoked by peroxidase-catalyzed oxidation of Amplex Red® to resorufin, in which H2O2 generated by MAO reaction was used as the electron donor. Human recombinant MAO-A (hMAO-A) and MAO-B (hMAO-B) enzymes expressed in insect cells were obtained from Sigma-Aldrich. The 2 μL of test compound in DMSO (final concentration: 1–10 μM) was treated with 98 μL of hMAO enzyme solution in 50 mM sodium phosphate buffer (pH 7.4, final protein amounts: ~1.25 μg protein/well for MAO-A and ~2.5 μg protein/well for MAO-B) on 96-well black plate and incubated for 15 min at 37 °C. Then, 100 μL of reaction working solution which is a mixed solution of 400 μM Amplex Red® (Cayman, final concentration: 200 μM), 2 U/mL horseradish peroxidase (Sigma-Aldrich, final concentration: 1 U/mL) and 2 mM substrate (p-tyramine for MAO-A, benzylamine for MAO-B, Sigma-Aldrich, final concentration: 1 mM) in 50 mM sodium phosphate buffer (pH 7.4) were added and incubated for 20 min at 37 °C in the dark. The fluorescent intensity was quantified using a microplate reader (SpectraMax®i3, Molecular Device) with an excitation at 545 nm and an emission at 590 nm. The 50% inhibitory concentrations (IC50) of compounds were determined as the mean ± S.E.M. in triplicate from the dose-response inhibition curves using SigmaPlot® 13.0 (Systat Software Inc., San Jose, CA, USA).

PC12 cells [3] = test: Protective effect against rotenone-induced cytotoxicity in PC12 cells (MTT); conditions: Rattus norvegicus, PC-12, read-out: IC50 against rotenone-induced cytotoxicity
Protocol: as §1
(§2) To examine the effects of the test compounds on cell survival, cells were incubated in low serum media (1% HS, 1% FBS, 100 IU/mL penicillin, and 100 μg/mL streptomycin) with test compounds at the concentrations of 10 and 30 μM or an equivalent volume of vehicle control (DMSO at the final concentration of 0.3%) for 24 h. The media containing test compounds was sonicated at room temperature for 30 min to assure adequate dissolution in the media. […]
(§3) After the desired treatment, cell viability was determined by MTT assay as described previously, with slight modification. […] The absorbance of the dissolved solution was measured at 550 nm using a microplate reader (SpectraMax M2e, Molecular Devices, Sunnyvale, CA, USA). The cell viability was presented as the percentage of the absorbance measured in the vehicle-treated control cells. […]

PC12 cells [4] = test: Protective effect against 6-OHDA-induced cytotoxicity in PC12 cells (MTT); conditions: Rattus norvegicus, PC-12, read-out: IC50 against 6-OHDA-induced cytotoxicity
Protocol: as §1, §2, §3

hMAO-B enzyme = molecular target: T2, hMAO-B enzyme (Homo sapiens, UniProt P27338); test: Michaelis-Menten kinetic study of MAO-B inhibition mode; type: biochemical; conditions: for Type of MAO-B inhibition: Lineweaver-Burk plots intersect at y-axis; for Ki: benzylamine 0.065-4 mM, inhibitor 10, 30, 100 nM, read-out: Ki (inhibition constant), MAO-B
T2 construct: purchased Sigma-Aldrich; host or cells: insect cells
T2 sequence (P27338 1-520): T1 sequence (P27338 1-520)
Protocol: The type of MAO-B inhibition of the tested compounds was determined by Michaelis-Menten kinetic study following our recently reported study. The type of MAO-B inhibition of the tested compound(s) was determined by Michaelis–Menten kinetic study. The catalytic rates of the hMAO-B enzyme in the absence or in the presence of three different concentrations (10, 30, and 100 nM) of the tested compound were measured at seven different concentrations of the benzylamine (0.065, 0.125, 0.25, 0.5, 1, 2, and 4 mM). The corresponding progression curves and the Lineweaver-Burk plots were generated using GraphPad Prism 7 (GraphPad Software, Inc., La Jolla, CA, USA). The maximal velocity (Vmax), the Michaelis constant (Km), and the inhibition constant (Ki) were calculated using SigmaPlot® 13.0.
The initial rates of MAO-B inhibition in the absence and presence of the tested compound were measured at various concentrations (0.065, 0.125, 0.25, 0.5, 1, 2, and 4 mM) of benzylamine (a selective substrate for MAO-B). The corresponding progression curves and the Lineweaver-Burk plots were generated using GraphPad Prism 7. Both Michaelis–Menten and the Lineweaver-Burk plots were depicted in Figure 4 and Figure 5. […] The maximal velocity (Vmax), the Michaelis constant (Km), and the inhibition constant (Ki) were calculated using SigmaPlot®.

Row | SMILES | Cytotoxic effect on PC12 cell viability (PC12 cells [1]; 10 μM) | IC50 [2] | Selectivity Index (SI) [2] | inhibition at 10 µM [2] [%] | IC50 (PC12 cells [3]) [nM] | IC50 (PC12 cells [4]) [nM] | Cytotoxic effect on PC12 cell viability (PC12 cells [1]; 30 μM) | % Inhibition of MAO-B at 10 µM [2] [%] | Type of MAO-B inhibition (hMAO-B enzyme) | Ki (hMAO-B enzyme) [nM]
1 | COC(=O)c1ccc2c(ccn2C(=O)c2ccc(Cl)c(Cl)c2)c1 [Compound 7b, Methyl 1-(3,4-dichlorobenzoyl)-1H-indole-5-carboxylate] | did not show any cytotoxic effects | 330 nM and 328 nM | >305 | 84.1 | – | – | – | – | – | –
2 | O=C(Nc1ccc(Br)cc1)c1ccc2[nH]ccc2c1 [Compound 8b, N-(4-bromophenyl)-1H-indole-5-carboxamide] | did not show any cytotoxic effects | 30 nM and 30.5 nM | >3278 | > 99 | 3300 | 2800 | significant reduction in cell viability | 99.4 ± 0.0 | competitive, and accordingly, reversible; also recorded: Competitive inhibition | 6.63
3 | O=C(Nc1ccc2c(c1)OCO2)c1ccc2[nH]ccc2c1 [Compound 8e, N-(benzo[d][1,3]dioxol-5-yl)-1H-indole-5-carboxamide] | did not show any cytotoxic effects | 450 nM and 453 nM | >220 | 89.6 ± 0.4 | – | – | – | – | – | –
4 | O=C(Nc1ccc(I)cc1)c1ccc2[nH]ccc2c1 [Compound 8a, N-(4-iodophenyl)-1H-indole-5-carboxamide] | did not show any cytotoxic effects | 27.4 nM | >3649 | > 99 | – | – | – | 99.3 ± 0.0 | competitive, and accordingly, reversible; also recorded: Competitive inhibition | 10.3
